Assay results from patent publication US12054463B2, “Radiolabeled microtubule imaging compounds and uses thereof” (The Trustees of Columbia University in the City of New York, priority 2017, dated 2024).
“Also recorded” adds a separate entry of the source.

Assays:
[1] = target: M; test: Affinity to brain targets (panel); type: binding; settings: M: muscarinic
[2] = target: mGluR; test: Affinity to brain targets (panel); type: binding; settings: mGluR (mGluRs): metabotropic glutamate receptors
[3] = target: BZP; test: Affinity to brain targets (panel); type: binding; settings: BZP: benzodiazepine
[4] = target: 5-HT1D (Homo sapiens, UniProt P28221); test: Affinity to brain targets (panel); type: binding
Chain of 5-HT1D (P28221 whole entry, species assumed): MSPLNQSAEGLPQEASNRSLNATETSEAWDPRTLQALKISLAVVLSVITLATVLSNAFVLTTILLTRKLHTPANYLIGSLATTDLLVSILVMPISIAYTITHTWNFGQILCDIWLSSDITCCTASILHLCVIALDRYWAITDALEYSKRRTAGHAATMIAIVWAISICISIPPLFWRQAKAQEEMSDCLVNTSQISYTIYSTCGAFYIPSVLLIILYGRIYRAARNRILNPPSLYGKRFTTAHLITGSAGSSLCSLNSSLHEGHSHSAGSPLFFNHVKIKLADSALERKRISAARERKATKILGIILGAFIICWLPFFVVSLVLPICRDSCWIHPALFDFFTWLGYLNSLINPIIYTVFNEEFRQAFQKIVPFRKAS

[5] = target: β2 (Homo sapiens, UniProt P07550); test: Affinity to brain targets (panel); type: binding
[6] = target: β3 (Homo sapiens, UniProt P13945); test: Affinity to brain targets (panel); type: binding
Chain of β3 (P13945 whole entry): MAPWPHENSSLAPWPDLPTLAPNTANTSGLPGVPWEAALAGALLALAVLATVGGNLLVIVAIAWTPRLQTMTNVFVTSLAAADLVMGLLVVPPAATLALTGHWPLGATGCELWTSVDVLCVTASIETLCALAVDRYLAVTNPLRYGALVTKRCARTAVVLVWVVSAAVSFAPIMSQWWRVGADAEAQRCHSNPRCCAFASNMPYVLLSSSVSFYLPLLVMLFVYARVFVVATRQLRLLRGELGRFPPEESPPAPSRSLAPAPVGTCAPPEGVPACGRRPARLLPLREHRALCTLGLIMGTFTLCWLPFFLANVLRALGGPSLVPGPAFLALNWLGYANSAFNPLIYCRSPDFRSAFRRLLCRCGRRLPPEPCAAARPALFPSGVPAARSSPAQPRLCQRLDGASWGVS

[7] = target: Adenosine; test: Affinity to brain targets (panel); type: binding; settings: Adenosine (A)
[8] = target: NMDA; test: Affinity to brain targets (panel); type: binding
[9] = target: MOR (Homo sapiens, UniProt P35372); test: Affinity to brain targets (panel); type: binding; settings: MOR: mu opioid receptor
Chain of MOR (P35372 whole entry): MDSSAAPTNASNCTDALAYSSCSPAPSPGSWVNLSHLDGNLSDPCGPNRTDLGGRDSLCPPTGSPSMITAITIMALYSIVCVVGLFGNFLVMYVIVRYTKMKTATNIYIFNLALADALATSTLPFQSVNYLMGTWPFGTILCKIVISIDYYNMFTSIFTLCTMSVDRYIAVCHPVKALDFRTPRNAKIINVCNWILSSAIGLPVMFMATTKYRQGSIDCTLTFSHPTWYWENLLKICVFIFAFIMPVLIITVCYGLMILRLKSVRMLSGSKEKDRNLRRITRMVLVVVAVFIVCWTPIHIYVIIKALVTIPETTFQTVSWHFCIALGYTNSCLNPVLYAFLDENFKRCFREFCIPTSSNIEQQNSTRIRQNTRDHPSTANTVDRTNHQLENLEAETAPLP

[10] = target: NT; test: Affinity to brain targets (panel); type: binding; settings: NT: neurotrophin
[11] = target: D3 (Homo sapiens, UniProt P35462); test: Affinity to brain targets (panel); type: binding; settings: D3: dopamine
Chain of D3 (P35462 whole entry): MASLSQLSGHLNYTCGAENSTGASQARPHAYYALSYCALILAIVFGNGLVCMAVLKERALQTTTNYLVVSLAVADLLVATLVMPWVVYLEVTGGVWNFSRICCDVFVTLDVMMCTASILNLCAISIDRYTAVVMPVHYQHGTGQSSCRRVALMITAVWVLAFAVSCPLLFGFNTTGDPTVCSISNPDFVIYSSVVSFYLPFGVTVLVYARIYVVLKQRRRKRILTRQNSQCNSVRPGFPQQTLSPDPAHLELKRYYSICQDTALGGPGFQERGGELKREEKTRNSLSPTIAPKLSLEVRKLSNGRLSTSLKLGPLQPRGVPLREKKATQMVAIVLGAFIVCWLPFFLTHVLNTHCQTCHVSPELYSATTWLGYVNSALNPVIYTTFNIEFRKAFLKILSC

[12] = target: 5-HT3 (Homo sapiens, UniProt P46098); test: Affinity to brain targets (panel); type: binding
Chain of 5-HT3 (P46098 24-478, species assumed): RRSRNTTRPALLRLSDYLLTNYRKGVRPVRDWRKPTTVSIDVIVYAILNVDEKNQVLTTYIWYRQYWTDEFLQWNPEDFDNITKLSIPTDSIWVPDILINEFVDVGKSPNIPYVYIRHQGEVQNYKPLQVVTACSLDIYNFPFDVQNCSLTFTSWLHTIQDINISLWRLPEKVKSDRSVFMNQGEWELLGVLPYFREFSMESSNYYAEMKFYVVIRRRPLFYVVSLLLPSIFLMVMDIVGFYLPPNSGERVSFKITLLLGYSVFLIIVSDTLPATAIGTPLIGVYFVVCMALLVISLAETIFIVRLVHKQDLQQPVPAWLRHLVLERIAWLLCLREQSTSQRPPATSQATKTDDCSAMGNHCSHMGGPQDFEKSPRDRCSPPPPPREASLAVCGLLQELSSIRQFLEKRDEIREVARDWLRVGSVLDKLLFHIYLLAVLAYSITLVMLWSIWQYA

[13] = target: 5-HT1B (Homo sapiens, UniProt P28222); test: Affinity to brain targets (panel); type: binding
Chain of 5-HT1B (P28222 whole entry, species assumed): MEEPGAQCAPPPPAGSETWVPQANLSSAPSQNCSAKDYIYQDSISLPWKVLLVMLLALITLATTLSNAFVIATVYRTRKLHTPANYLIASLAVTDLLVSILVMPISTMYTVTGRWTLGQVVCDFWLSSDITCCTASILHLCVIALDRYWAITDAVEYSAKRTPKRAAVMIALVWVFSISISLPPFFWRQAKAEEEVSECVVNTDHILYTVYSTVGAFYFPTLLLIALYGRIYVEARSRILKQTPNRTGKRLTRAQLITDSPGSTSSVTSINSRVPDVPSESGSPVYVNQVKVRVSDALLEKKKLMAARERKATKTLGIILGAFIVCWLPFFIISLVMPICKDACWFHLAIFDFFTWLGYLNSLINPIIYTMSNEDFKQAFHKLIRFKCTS

[14] = test system: panel of kinases; settings: cited from earlier work
[15] = target: 5-HT1A (Homo sapiens, UniProt P08908); test: Affinity to brain targets (panel); type: binding
[16] = target: EP; test: Affinity to brain targets (panel); type: binding; settings: EP: prostanoid receptors
[17] = target: D5 (Homo sapiens, UniProt P21918); test: Affinity to brain targets (panel); type: binding; settings: D5: dopamine
[18] = target: I; test: Affinity to brain targets (panel); type: binding
[19] = target: VMAT; test: Affinity to brain targets (panel); type: binding; settings: VMAT (VMAT 1,2): vesicular monoamine transporter
[20] = target: α2A (Homo sapiens, UniProt P08913); test: Affinity to brain targets (panel); type: binding
[21] = target: CB1 (Homo sapiens, UniProt P21554); test: Affinity to brain targets (panel); type: binding; settings: CB1: cannabinoid
Chain of CB1 (P21554 whole entry, species assumed): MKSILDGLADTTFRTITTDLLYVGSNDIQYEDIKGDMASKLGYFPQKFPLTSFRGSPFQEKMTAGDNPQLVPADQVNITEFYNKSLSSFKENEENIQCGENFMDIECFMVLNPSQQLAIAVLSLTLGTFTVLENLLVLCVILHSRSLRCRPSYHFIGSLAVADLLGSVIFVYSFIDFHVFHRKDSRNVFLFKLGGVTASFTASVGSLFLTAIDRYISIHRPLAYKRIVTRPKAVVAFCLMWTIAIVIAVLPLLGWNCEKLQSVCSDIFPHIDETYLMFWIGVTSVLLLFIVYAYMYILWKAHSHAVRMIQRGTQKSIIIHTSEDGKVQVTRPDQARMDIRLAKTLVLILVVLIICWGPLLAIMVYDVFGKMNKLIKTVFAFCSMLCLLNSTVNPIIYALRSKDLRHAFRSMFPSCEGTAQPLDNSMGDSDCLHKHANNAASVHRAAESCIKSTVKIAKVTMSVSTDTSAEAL

[22] = target: NK; test: Affinity to brain targets (panel); type: binding; settings: NK: neurokinin
[23] = test system: microtubules (MTs); settings: reference 9; cited from earlier work
[24] = target: α1A-1C; test: Affinity to brain targets (panel); type: binding
[25] = target: D1, D2; test: Affinity to brain targets (panel); type: binding; settings: D1, D2: dopamine
[26] = target: β1 (Homo sapiens, UniProt P08588); test: Affinity to brain targets (panel); type: binding
Chain of β1 (P08588 whole entry): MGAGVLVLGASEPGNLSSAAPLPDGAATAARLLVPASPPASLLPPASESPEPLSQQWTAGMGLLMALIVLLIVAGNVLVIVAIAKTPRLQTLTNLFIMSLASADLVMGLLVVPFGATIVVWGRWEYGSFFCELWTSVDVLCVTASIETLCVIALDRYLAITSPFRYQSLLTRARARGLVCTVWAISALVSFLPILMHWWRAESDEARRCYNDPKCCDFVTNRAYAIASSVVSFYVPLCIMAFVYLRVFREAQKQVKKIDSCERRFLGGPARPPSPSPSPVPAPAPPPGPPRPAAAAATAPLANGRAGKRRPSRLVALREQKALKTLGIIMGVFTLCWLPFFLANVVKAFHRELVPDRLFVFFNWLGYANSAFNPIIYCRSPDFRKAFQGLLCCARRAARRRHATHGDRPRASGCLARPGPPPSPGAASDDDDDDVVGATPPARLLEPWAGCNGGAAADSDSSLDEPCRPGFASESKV

[27] = target: Sigma1 (Homo sapiens, UniProt Q99720); test: Affinity to brain targets (panel); type: binding
Chain of Sigma1 (Q99720 whole entry): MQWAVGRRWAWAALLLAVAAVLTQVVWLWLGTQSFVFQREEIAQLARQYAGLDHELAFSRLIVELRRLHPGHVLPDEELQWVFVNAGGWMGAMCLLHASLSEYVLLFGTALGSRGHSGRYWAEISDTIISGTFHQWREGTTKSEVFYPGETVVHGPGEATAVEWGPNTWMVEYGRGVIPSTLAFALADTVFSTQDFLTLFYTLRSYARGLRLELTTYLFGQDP

[28] = target: PKC; test: Affinity to brain targets (panel); type: binding; settings: PKC: Protein kinase C
[29] = target: Na+ Channel; test: Affinity to brain targets (panel); type: binding
[30] = target: α2C (Homo sapiens, UniProt P18825); test: Affinity to brain targets (panel); type: binding
[31] = target: variety of brain targets; test: Affinity for a variety of brain targets; type: binding; settings: variety of brain targets (Table 1), except H4R
[32] = target: V1-2; test: Affinity to brain targets (panel); type: binding; settings: V1-2: vasopressin
[33] = target: CB2 (Homo sapiens, UniProt P34972); test: Affinity to brain targets (panel); type: binding; settings: CB2: cannabinoid
[34] = target: H3, H4; test: Affinity to brain targets (panel); type: binding; settings: H3, H4: histamine
[35] = target: AMPA; test: Affinity to brain targets (panel); type: binding
[36] = target: 5-HT1E (Homo sapiens, UniProt P28566); test: Affinity to brain targets (panel); type: binding
[37] = target: 5-HT2A (Homo sapiens, UniProt P28223); test: Affinity to brain targets (panel); type: binding
Chain of 5-HT2A (P28223 whole entry): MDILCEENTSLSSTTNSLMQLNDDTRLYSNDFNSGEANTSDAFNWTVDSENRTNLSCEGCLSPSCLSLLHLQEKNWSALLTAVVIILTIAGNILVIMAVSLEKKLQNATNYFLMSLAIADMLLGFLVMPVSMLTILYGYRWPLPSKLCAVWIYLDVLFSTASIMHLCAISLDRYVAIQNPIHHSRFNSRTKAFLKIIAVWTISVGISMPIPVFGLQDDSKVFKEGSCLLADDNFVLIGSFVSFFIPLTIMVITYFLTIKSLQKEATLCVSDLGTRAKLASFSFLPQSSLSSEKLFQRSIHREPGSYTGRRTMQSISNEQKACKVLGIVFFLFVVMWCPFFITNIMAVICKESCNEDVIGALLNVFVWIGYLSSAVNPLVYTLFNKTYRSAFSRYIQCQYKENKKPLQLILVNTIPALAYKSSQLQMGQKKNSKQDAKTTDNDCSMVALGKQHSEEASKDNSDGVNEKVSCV

[38] = target: Ca++ channel; test: Affinity to brain targets (panel); type: binding
[39] = target: KA; test: Affinity to brain targets (panel); type: binding; settings: KA (KAR): Kainate
[40] = target: H2 (Homo sapiens, UniProt P25021); test: Affinity to brain targets (panel); type: binding; settings: H2: histamine
Chain of H2 (P25021 whole entry): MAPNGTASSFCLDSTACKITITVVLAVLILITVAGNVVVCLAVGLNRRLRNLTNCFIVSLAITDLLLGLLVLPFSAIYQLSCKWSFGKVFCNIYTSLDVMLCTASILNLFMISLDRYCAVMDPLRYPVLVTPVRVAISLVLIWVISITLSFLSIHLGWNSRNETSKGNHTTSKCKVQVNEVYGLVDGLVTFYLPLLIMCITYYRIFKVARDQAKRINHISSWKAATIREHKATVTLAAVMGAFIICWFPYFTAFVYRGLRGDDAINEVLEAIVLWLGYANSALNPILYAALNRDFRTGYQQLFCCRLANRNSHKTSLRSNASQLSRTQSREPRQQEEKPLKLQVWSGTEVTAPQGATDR

[41] = target: α2B (Homo sapiens, UniProt P18089); test: Affinity to brain targets (panel); type: binding
[42] = target: 5-HT7 (Homo sapiens, UniProt P34969); test: Affinity to brain targets (panel); type: binding
Chain of 5-HT7 (P34969 whole entry, species assumed): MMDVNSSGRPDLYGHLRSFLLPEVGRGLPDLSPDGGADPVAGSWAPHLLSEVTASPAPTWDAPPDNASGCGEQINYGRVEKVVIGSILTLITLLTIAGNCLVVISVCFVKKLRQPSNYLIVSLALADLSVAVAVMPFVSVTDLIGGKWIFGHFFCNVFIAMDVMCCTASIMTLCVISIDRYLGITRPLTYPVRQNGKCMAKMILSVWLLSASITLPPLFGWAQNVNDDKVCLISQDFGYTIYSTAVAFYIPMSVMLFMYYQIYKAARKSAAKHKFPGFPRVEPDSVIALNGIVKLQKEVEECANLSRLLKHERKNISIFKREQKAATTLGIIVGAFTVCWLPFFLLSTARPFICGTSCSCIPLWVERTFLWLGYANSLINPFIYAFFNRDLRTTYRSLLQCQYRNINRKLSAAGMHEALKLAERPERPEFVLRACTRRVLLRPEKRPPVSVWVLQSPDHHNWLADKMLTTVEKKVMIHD

[43] = target: 5-HT2B (Homo sapiens, UniProt P41595); test: Affinity to brain targets (panel); type: binding
[44] = target: GABA; test: Affinity to brain targets (panel); type: binding
[45] = target: 5-HT2C (Homo sapiens, UniProt P28335); test: Affinity to brain targets (panel); type: binding
[46] = target: D4 (Homo sapiens, UniProt P21917); test: Affinity to brain targets (panel); type: binding; settings: D4: dopamine
[47] = test system: brain MT; test: MicroPET in athymic nude male mice; type: in vivo
Description: (§1) Biodistribution of [^11C] […] The time-activity curves were expressed in g/mL normalized to the injected dose corrected for weight, to obtain standardized uptake values (SUVs). The brain SUV of [^11C] […] The heart, blood and muscles also show binding to [^11C] MPC-6827 and are consistent with known distribution of MTs in these organs. […] The lungs show higher uptake up to 30 minutes, followed by washout. 70% specific binding in brain was established at 30 minutes prior to the injection of radiotracer with 5 mg/kg MPC-6827 (FIG. 2) in mice.
Radioligand binding in thyroid gland, is also displaced during the blocking experiments.^21-23

[48] = Stability in 5% ethanol-saline formulation; type: physicochemical
Description: (§2) The radiochemical synthesis of [^11C] MPC-6827 was optimized and automated on aGE-FX2MeI/FX2M radiochemistry module by alkylating the desmethyl-MPC6827 precursor (6) with [^11C] MeI in DMF using NaOH. [^11C] MPC-6827 was produced with a radiochemical yield (RCY) of 40%, in >99% radiochemical purity and a specific activity of 2+0.5 Ci/μmol (decay corrected to end of synthesis (EOS)). The radioligand was stable in 5% ethanol-saline formulation for 4 h and the log Poct/wat was estimated as 3.8 by shake flask method.

[49] = test system: glioblastoma PDX cells; test: In vitro cell uptake; type: cell-based
[50] = test system: amyloid overexpressing 5×FAD-AD mice; test: MicroPET in AD animal model 5×FAD; type: in vivo; settings: 15 month-old
Source text: In vivo imaging of [^11C]MPC-6827 in amyloid overexpressing 5×FAD-AD mice (15 month-old) show 40% lower binding of radiotracer in the whole brain model in comparison to the wild type controls (FIGS. 10 and 11). The tracer binding in frontal and mid brain regions show significant lower binding than whole brain in comparison to wild type mice.

[51] = test system: prostate cancer (PC3) cells; test: In vitro cell uptake; type: cell-based
[52] = test system: tau-overexpressing rTg4510 mice; test: MicroPET in AD animal model rTg4510; type: in vivo; settings: 9-month old
Source text: MicroPET studies with 9-month old, tau-overexpressing rTg4510 mice (Alzheimer disease-tau pathology) show ˜35% lower binding of [^11C]MPC-6827 brain activity in comparison to the control mice (FIGS. 12 and 13).

[53] = log Poct/wat by shake flask method; type: physicochemical; settings: octanol/water
Description: as §2

[54] = test system: glioblastoma (GBM) U251 cells; test: In vitro cell uptake; type: cell-based
[55] = test system: rat brain; test: MicroPET in rat; type: in vivo
[56] = test system: MDA-MB-231 cells; test: Cell uptake and blocking; type: cell-based
[57] = test system: brain MT; test: Biodistribution in white male mice; type: in vivo
Description: as §1

COc1ccc(N(C)c2nc(C)nc3ccccc23)cc1 [MPC-6827, N-(4-methoxyphenyl)-N,2-dimethylquinazolin-4-amine]
Ki [1]: > 10 µM | Ki [2]: > 10 µM | Ki [3]: > 10 µM | Ki [4]: > 10 µM | Ki [5]: > 10 µM | Ki [6]: > 10 µM | Ki [7]: > 10 µM | Ki [8]: > 10 µM | Ki [9]: 6.48 µM | Ki [10]: > 10 µM | Ki [11]: > 10 µM | Ki [12]: > 10 µM | Ki [13]: > 10 µM | binding to a panel / variety of kinases [14]: did not show binding | Ki [15]: > 10 µM | Ki [16]: > 10 µM | Ki [17]: > 10 µM | Ki [18]: > 10 µM | Ki [19]: > 10 µM | Ki [20]: > 10 µM | Ki [21]: > 10 µM | Ki [22]: > 10 µM | competition at microtubule binding sites [23]: compete with paclitaxel and colchicine, but not with vinblastine | Ki [24]: > 10 µM | Ki [25]: > 10 µM | Ki [26]: > 10 µM | Ki [27]: 0.426 µM | Ki [28]: > 10 µM | Ki [29]: > 10 µM | Ki [30]: > 10 µM | Ki [31]: > 10 µM | Ki [32]: > 10 µM | Ki [33]: > 10 µM | Ki [34]: > 10 µM | Ki [35]: > 10 µM | Ki [36]: > 10 µM | Ki [37]: > 10 µM | Ki [38]: > 10 µM | Ki [39]: > 10 µM | Ki [40]: 0.155 µM | Ki [41]: > 10 µM | Ki [42]: > 10 µM | Ki [43]: > 10 µM | Ki [44]: > 10 µM | Ki [45]: > 10 µM | Ki [46]: > 10 µM

COc1ccc(N(C)c2nc(C)nc3ccccc23)cc1 [[^11C]MPC-6827]
brain uptake / BBB penetration ([47]; microPET, nude mice, baseline): excellent brain uptake; also recorded: penetrates the blood brain barrier (BBB) with excellent retention | blocking of brain uptake ([47]; pre-administration of 5 mg/kg MPC-6827 and 5 mg/kg HD-800 (i.v.)): substantially blocked | stable in 5% ethanol-saline formulation [48]: 4 h | uptake and specific binding [49]: excellent uptake and specific binding | lower binding of radiotracer in the whole brain vs wild type controls [50]: 40% | uptake and specific binding [51]: excellent uptake and specific binding | lower binding (brain activity) vs control mice [52]: ~35% | logP [53]: 3.8 | uptake and specific binding [54]: excellent uptake and specific binding | BBB penetration and retention in brain [55]: BBB penetration and excellent retention | binding site on microtubules [56]: binds to taxane and colchicine binding sites of microtubules | incubation time to equilibrium binding [56]: 60 min | specific binding ([56]; with 5 μM MPC-6827): 95% | specific binding ([56]; with 5 μM MTA HD-800): 95% | specific binding ([56]; with 5 μM colchicine): 65% | specific binding ([56]; with 5 μM docetaxel): 88% | specific binding ([56]; with 5 μM paclitaxel): 78% | BBB penetration and brain retention ([57]; biodistribution, white male mice): penetrated the BBB and was retained in the brain | specific binding in brain ([57]; mice, 30 minutes, blocking with 5 mg/kg MPC-6827): 70% | brain SUV ([57]; mice, compared with established PET tracers): higher than that of the established brain PET/periphery PET tracers
